Where a SMILES comes first, the peptide text is derived from it. The star is where a group is joined. Galloyl = O=C(c1cc(O)c(O)c(O)c1)*
Experiments:
[1] = tested on: JFH-1-infected Huh-7.5 cells; assay: HCV release/assembly evaluation (qPCR intra/extracellular HCV RNA); type: cell-based, hepatitis C virus; details: 24 h treatment; 5, 10 and 20 μM, not dose-dependent
Method: Figure 6 GA-Hecate effect on HCV Release and infectivity. (A) HCV-infected Huh-7.5 cells were treated for 24 h with GA-Hecate. RNA was isolated and summited to qPCR for HCV 5′ UTR. Intracellular HCV expression was normalized by GAPDH, and extracellular HCV expression was calculated by absolute quantification. The difference between the intra and extracellular RNA expression represents the HCV release. Bars represent triplicate samples of three independent assays. Naringenin (200 μM) was used as a positive control of HCV release inhibition and water was a negative control of HCV release inhibition. ^aP < 0.001 vs Control (−), intracellular. ^bP < 0.001 vs Control (−), extracellular. F = 22.58, df (row factor) = 4. (B) Infectivity. HCV-infected Huh-7.5 cells were treated for 24 h with GA-Hecate, and then the supernatant was collected and used to infect naïve Huh-7.5 cells. The capacity of HCVcc particles to generate a new infection after GA-Hecate treatment is represented by the bars. […]
JFH-1-infected Huh-7.5 cells were used to evaluate the GA-Hecate effect on virus release/assembly. […] After treatment, the intracellular and extracellular RNA content was isolated following the TRIzol reagent protocol and quantified by qPCR of the HCV 5′ UTR region (forward: 5′ CGGGAGAGCCATAGTGG; reverse, 5′ […]; probe: 5′-FAM-[…]-TAMRA-3) using TaqMan® Universal PCR Master Mix (Thermo Scientific, CA, USA).

[2] = tested on: J6/JFH-1-infected Huh-7.5 cells; assay: Apoptosis analysis (active caspase-3 staining); type: cell-based, human; details: 1.25-40 μM; 48 and 72 h p.t.
Method: (§1) Apoptosis and Necrosis analysis
(§2) The ability of GA-Hecate inducing cell death by necrosis and apoptosis was assessed in 48 and 72h post-treatment (p.t) at concentrations: 1.25; 2.5; 5; 10; 20 and 40 μM. For necrosis evaluation, cells were stained using Propidium Iodide at […], which was incubated with the cells 15 minutes prior fixation. Subsequently, cells were fixed using paraformaldehyde 4% in PBS (PFA 4%) for 15 minutes and nuclei stained using DAPI 1 μg/mL for 5 minutes. For apoptosis evaluation, cells were fixed using PFA 4% during 15 minutes, permeabilized using Triton X- 100 (Sigma) 0.1% in PBS and stained using anti-Active Caspase 3 antibody (host: Rabbit) (1:200 in BSA 1% in PBS) (Abcam 13847) for 2h. Then cells were rinsed using PBS and stained using anti-rabbit AlexaFluor 594 (1:500 in BSA 1% PBS) (Thermo Scientific A21207) during 2h. Nuclei were stained using DAPI for 5 minutes. For both assays, cells were counted in 5 randomly chosen fields in duplicate. […]
Figure S2. Cell death mechanisms triggered by GA-Hecate 48h post-treatment in J6/JFH-1- infected Huh-7.5 cells. A) Apoptosis activation triggered by GA-Hecate was measured by Active Caspase-3 in treated cells. Caspase is artificially represented in green and nuclei were stained using DAPI 1µg/mL (blue). B) Necrosis assessment. […]

[3] = tested on: J6/JFH-1-infected Huh-7.5 cells; assay: Necrosis analysis (propidium iodide staining); type: cell-based, human
Method: as §1, §2
Figure S2. Cell death mechanisms triggered by GA-Hecate 48h post-treatment in […]
J6/JFH-1- infected Huh-7.5 cells. […]
B) Necrosis assessment.
Necrotic cells were stained using Propidium iodide […], which is able to cross only damaged membranes and reaches the nucleus. PI is represented in red and cell nuclei were counterstained using DAPI (blue). Bars represents the average of 5 fields in duplicate. Ns: non statistically significant. *** Pvalue< 0.001vs 0.00 µM […]
Figure S3. Cell death mechanisms triggered by GA-Hecate 72h post-treatment in […]

[4] = tested on: HCVcc FL-J6/JFH-50C19Rluc2AUbi (genotype 2a); assay: HCVcc replication (full-length replicon, Renilla luciferase / protein); type: cell-based, hepatitis C virus; details: 20 μM; 48 h; viral RNA (luciferase) and protein levels
Description: Figure 4 GA-Hecate effect on HCVcc replication. (A) HCV RNA expression measured by the Renilla luciferase reporter gene. (B) HCV non-structural (NS5A) protein expression. GAPDH was used as an endogenous control. Water was used as a negative control of virus replication inhibition (Control (−)), and cyclosporine A was used as a positive control of virus replication inhibition (Control (+)). Bars represent triplicate samples of three independent assays. RLU - Relative light units. ***P < 0.001 vs Control (−); F = 273.2, df (between columns) = 5.
Cell lines harboring subgenomic or genomic replicons were seeded at 5 × 10^3 cells /well on 96-well plates and the compounds were added 24 h post-seeding, in a concentration range between 2.5–20 μM. […] Luciferase activity was measured using a luminometer (FLUOstar Omega/BMG LABTECH, Offenburg, BW, DE). […]
HCV (FL J6/JFH) infected cells were used to evaluate virus protein expression after peptide treatment. […] Total protein was quantified using a BCA assay (Thermo-Scientific) following the manufacturer’s instructions. […] Finally, the membrane was incubated for 1 minute with Pierce ECL Western Blotting Substrate (Thermo-Scientific-Pierce, Rockford, IL, USA), and the luminescence intensity was captured on a Chemi-Doc System (Bio-Rad, Amadora, PT). […]

Compound: CC(C)C[C@H](NC(=O)[C@H](C)NC(=O)[C@H](CCCCN)NC(=O)[C@H](CCCCN)NC(=O)[C@H](CC(C)C)NC(=O)[C@H](C)NC(=O)[C@H](CCCCN)NC(=O)[C@H](CCCCN)NC(=O)[C@H](CC(C)C)NC(=O)[C@H](CCCCN)NC(=O)[C@H](CCCCN)NC(=O)[C@H](CC(C)C)NC(=O)[C@H](C)NC(=O)[C@H](CCCCN)NC(=O)[C@H](CCCCN)NC(=O)[C@H](CC(C)C)NC(=O)[C@H](C)NC(=O)[C@H](CCCCN)NC(=O)[C@H](CC(C)C)NC(=O)[C@H](C)NC(=O)[C@H](CC(C)C)NC(=O)[C@H](C)NC(=O)[C@H](Cc1ccccc1)NC(=O)c1cc(O)c(O)c(O)c1)C(N)=O [GA-Hecate] (Galloyl-FALALKALKKALKKLKKALKKAL-NH2)
- inhibition of virus release [1]: approximately 50%
- apoptosis induction (active caspase-3) [2]: no significate apoptosis induction in any tested time point or concentration
- necrosis ([3]; 20 μM, over the time (48 and 72 h)): about 20%
- necrosis ([3]; 40 μM, 48h p.t., propidium iodide): 50%
- necrosis ([3]; 40 μM, 72h p.t., propidium iodide): 10%
- inhibition of HCVcc replication [4]: approximately 85%
